Data set [1] relates to promoters of Zeb1, Zeb2, Twist1, and Snail. As to the kind of experiment: ChIP assay on the promoters of Zeb1, Zeb2, Twist1, and Snail, H1299 cells. The data set is classed as cell-based, human. Particulars: vs Scr. On the procedure:
ChIP assays were performed with H1299 cells in accordance with standard protocols. Normal rabbit IgG served as the control. ChIP samples were analyzed by quantitative real-time PCR using the FastStart Universal SYBR Green Master (Roche). A standard curve was prepared for each set of primers using serial titration of the input DNA. The percentage of ChIP DNA was calculated relative to the input DNA from primer-specific standard curves using the Rotor-Gene 6000 Series Software 1.7. The primer sequences for ChIP are listed in Supplementary Table 4. Antibodies used were: H4S1ph (Abcam; ab14723), H4K5ac (Millipore; CS204381), H4R3me2a (Active Motif; 39705), H4R3me2s (Abcam; ab5823), CK2α (Abcam; ab70774), H3K4me3 (Abcam; ab8580), and H3K27me3 (Abcam; ab6002).
Supplementary Figure 7. Knockdown of NatD has no effect on enrichment of H4S1ph on some EMT-related gene promoters. (a-d) ChIP analysis of the enrichment of Nt-ac-H4, H4S1ph, H3K4me3 and H3K27me3 on the promoter of Zeb1(a), Zeb2(b), Twist1(c), and Snail (d) in Scr and NatD-KD H1299 cells. IgG served as a negative control. Results are shown as mean ± s.d. of three independent experiments; two-tailed Student’s t-test, **P<0.01 or *P<0.05 compared to Scr […]
(1 picture or pasted object on this page, not shown here)

For the next data set, the system named is LLC cells. As to the kind of experiment: Tail vein injection in C57BL/6 mice, LLC cells. The data set is classed as in vivo, murine. Particulars: 30 days, n = 5, vs Scr. As for the experimental part:
All animal care and handling procedures were performed in accordance with the National Institutes of Health Guide for the Care and Use of Laboratory Animals, and were approved by the Institutional Review Board of Nanjing University (Nanjing, China). Female SCID mice and C57BL/6 mice (6–8 week old) were purchased from the Model Animal Research Center of Nanjing University (Nanjing, China), and were maintained under specific pathogen-free conditions at Nanjing University. The sample size was chosen with adequate power on the basis of the literature and our previous experience[46] and for each experiment it is indicated in the figure legend. […] Lung nodules and progression were monitored and quantified using the bioluminescence system (Caliper IVIS Lumina XR) or by counting under a dissecting microscope. […] Mice were killed at day 28 or day 30 to collect lungs, and lung nodules in serial sections were quantified microscopically. […] Lung nodules and progression were monitored and quantified using the bioluminescence system (Caliper IVIS Lumina XR). Mice were killed at day 14 or day 21 to collect lungs, and lung nodules in serial sections were quantified microscopically. […]
Representative blots from three independent experiments. […] (bottom) Cell migration and invasion expressed as a percentage of Scr control. […]

With “NatD-KD2: Human NatD shRNA KD2: 5′-GGTTGAATGTCTCCATTGA-3′, lentiviral (shRNA lentiviral)”, in data set [1], the “enrichment of H4S1ph, H3K4me3, and H3K27me3 on Zeb1, Zeb2, Twist1, Snail promoters” value is listed as “unchanged”; the “enrichment of Nt-ac-H4 on Zeb1, Zeb2, Twist1, Snail promoters” value was “reduced”. In the data set on LLC cells, the “number of tumor nodules” value is given as “significantly fewer tumor nodules”.
